Reference: the supplement of paper PMC11061612

Assays:
Assay in all cases: Bliss excess, mean over the matrix (fraction); higher = more synergy
[1] = system: A704 (Kidney Carcinoma)
In short: (§1)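 After 24 hours at 37°C and 5% CO2 in 1536-well plates, cells in DMEM/F12 or RPMI plus 10% FBS received two-drug dose matrices for 72 hours. Viability came from CellTiter-Glo 2.0 luminescence and was scaled as inhibition, anchored at 0 by vehicle wells and at 1 by blank wells. Combination Emax is taken as the second-highest inhibition in the matrix, and Bliss excess as the observed combination effect less EA + EB − EA·EB, with EA and EB the single-agent effects.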

[2] = system: BT-20 (Breast Carcinoma)
In short: as §1

[3] = system: DG-75 (Burkitt's Lymphoma)
In short: as §1

[4] = system: EW-3 (Ewing's Sarcoma)
In short: as §1

[5] = system: GI-1 (Glioblastoma)
In short: as §1

[6] = system: HC-1 (Other Blood Carcinomas)
In short: as §1

[7] = system: HSC-2 (Oral Cavity Carcinoma)
In short: as §1

[8] = system: IMR-5 (Neuroblastoma)
In short: as §1

[9] = system: KP-2 (Pancreatic Carcinoma)
In short: as §1

[10] = system: LC4-1 (B-Lymphoblastic Leukemia)
In short: as §1

[11] = system: LOU-NH91 (Squamous Cell Lung Carcinoma)
In short: as §1

[12] = system: NCI-H1573 (Lung Adenocarcinoma)
In short: as §1

[13] = system: NCI-H2405 (Lung Adenocarcinoma)
In short: as §1

[14] = system: NCI-H513 (Other Solid Carcinomas)
In short: as §1

[15] = system: NCI-N87 (Gastric Carcinoma)
In short: as §1

[16] = system: OCUM-1 (Gastric Carcinoma)
In short: as §1

[17] = system: PF-382 (T-Lymphoblastic Leukemia)
In short: as §1

[18] = system: RPMI-7951 (Melanoma)
In short: as §1

[19] = system: SNU-C1 (Colorectal Carcinoma)
In short: as §1

[20] = system: U-87-MG (Glioblastoma)
In short: as §1

SMILES	Bliss excess [1]	Bliss excess [2]	Bliss excess [3]	Bliss excess [4]	Bliss excess [5]	Bliss excess [6]	Bliss excess [7]	Bliss excess [8]	Bliss excess [9]	Bliss excess [10]	Bliss excess [11]	Bliss excess [12]	Bliss excess [13]	Bliss excess [14]	Bliss excess [15]	Bliss excess [16]	Bliss excess [17]	Bliss excess [18]	Bliss excess [19]	Bliss excess [20]
CN(CCO)CC[C@H](CSc1ccccc1)Nc1ccc(S(=O)(=O)NC(=O)c2ccc(N3CCC([C@@H](O)c4ccccc4-c4ccc(Cl)cc4)CC3)cc2)cc1S(=O)(=O)C(F)(F)F [AZD4320] + C[C@@H](Nc1cc(F)cc(F)c1)c1cc(C(=O)N(C)C)cc2c(=O)cc(N3CCOCC3)oc12 [AZD8186] (first compound max 1 µM, 7x7, partner max 3 µM)	-0.117	0.0586	0.0548	-0.0324	-0.0011	0.0252	-0.0401	0.0508	0.0419	0.0908	-0.0046	-0.0545	-0.0239	0.0113	0.0029	-0.0284	0.0836	0.0019	-0.0417	0.0472
CC(=O)c1c(C)c2cnc(Nc3ccc(N4CCNCC4)cn3)nc2n(C2CCCC2)c1=O [Palbociclib] + Cc1c2c(nn1C)CSCc1cc(n(C)n1)CSc1cc(c3ccccc3c1)OCCCc1c(C(=O)O)n(C)c3c-2c(Cl)ccc13 [AZD5991] (first compound max 10 µM, 7x7, partner max 1 µM)	-0.0629	-0.0834	0.0332	-0.0003	-0.0123	-0.152	-0.0997	0.0155	-0.0445	-0.0081	-0.0901	-0.0539	-0.0149	-0.0484	-0.0373	-0.0315	-0.0193	-0.0742	-0.0562	-0.0527
Cn1cnc2c(F)c(Nc3ccc(Br)cc3Cl)c(C(=O)NOCCO)cc21 [Selumetinib] + C=CCn1c(=O)c2cnc(Nc3ccc(N4CCN(C)CC4)cc3)nc2n1-c1cccc(C(C)(C)O)n1 [AZD1775] (first compound max 10 µM, partner max 1 µM)	-0.0211	-0.0224	-0.0637	-0.0564	-0.0387	-0.0702	-0.0366	0.0121	0.0088	0.0314	-0.0144	-0.0331	0.0147	-0.0387	0.023	-0.0137	0.0137	-0.0482	0.016	-0.0685
COc1nnc2ccc(N3CCC(c4ccc(OCCN5CCN(C)C(=O)[C@H]5C)cc4)CC3)nn12 [AZD5153] + Cc1c2c(nn1C)CSCc1cc(n(C)n1)CSc1cc(c3ccccc3c1)OCCCc1c(C(=O)O)n(C)c3c-2c(Cl)ccc13 [AZD5991] (first compound max 1 µM, 7x7, partner max 1 µM)	-0.0297	0.0213	-0.0432	0.0114	0.0022	0.0424	-0.0731	-0.0178	0.0098	-0.0736	-0.0449	0.0475	0.01	-0.0287	-0.0073	0.0024	0.0145	-0.0575	-0.0376	0.0336
CC1(C)CCC(CN2CCN(c3ccc(C(=O)NS(=O)(=O)c4ccc(NCC5CCOCC5)c([N+](=O)[O-])c4)c(Oc4cnc5[nH]ccc5c4)c3)CC2)=C(c2ccc(Cl)cc2)C1 [Venetoclax] + C=CCn1c(=O)c2cnc(Nc3ccc(N4CCN(C)CC4)cc3)nc2n1-c1cccc(C(C)(C)O)n1 [AZD1775] (first compound max 1 µM, partner max 1 µM)	-0.0283	-0.0076	-0.0575	0.0735	-0.0127	0.0665	-0.0096	0.0237	-0.0068	0.0355	-0.0815	-0.0513	-0.0756	-0.0608	0.0552	0.0513	-0.0639	-0.0559	-0.0136	-0.0456
CC(=O)Nc1cccc(-n2c(=O)n(C3CC3)c(=O)c3c(Nc4ccc(I)cc4F)n(C)c(=O)c(C)c32)c1 [Trametinib] + Cc1nc(-c2cn3c(n2)-c2ccc(-c4cnn(C(C)(C)C(N)=O)c4)cc2OCC3)n(C(C)C)n1 [Taselisib] (first compound max 1 µM, 7x7, partner max 10 µM)	-0.0243	0.118	0.0419	0.046	0.0885	0.12	0.137	0.0467	0.192	0.107	0.116	0.088	0.107	0.0563	0.067	0.06	0.234	0.0161	-0.0022	0.0848
Cc1c2c(nn1C)CSCc1cc(n(C)n1)CSc1cc(c3ccccc3c1)OCCCc1c(C(=O)O)n(C)c3c-2c(Cl)ccc13 [AZD5991] + CN(C)CCCOc1ccc(-c2ccc3ncc4c(c3c2)n(C2CCOCC2)c(=O)n4C)cn1 [AZD0156] (first compound max 1 µM, 7x7, partner max 1 µM)	-0.0475	0.0258	-0.0286	-0.0499	0.0067	-0.0479	-0.0089	-0.0194	-0.0125	-0.0177	0.01	-0.0443	-0.0075	-0.004	0.0027	-0.016	0.0109	-0.0382	-0.0652	-0.0477
Cn1cnc2c(F)c(Nc3ccc(Br)cc3Cl)c(C(=O)NOCCO)cc21 [Selumetinib] + CCN(CCO)CCCOc1ccc2c(Nc3cc(CC(=O)Nc4cccc(F)c4)[nH]n3)ncnc2c1 [AZD2811] (first compound max 10 µM, 7x7, partner max 1 µM)	-0.058	0.0328	0.0193	-0.0112	-0.104	0.0547	-0.0278	-0.0062	0.0449	-0.0505	-0.0096	-0.0318	-0.0127	-0.0583	-0.0173	0.0153	0.111	0.0191	-0.0494	-0.0443
CN(CCO)CC[C@H](CSc1ccccc1)Nc1ccc(S(=O)(=O)NC(=O)c2ccc(N3CCC([C@@H](O)c4ccccc4-c4ccc(Cl)cc4)CC3)cc2)cc1S(=O)(=O)C(F)(F)F [AZD4320] + Cc1cc2ncnn2cc1Nc1ncc2c(n1)n(C1CCOCC1)c(=O)n2C [AZD7648] (first compound max 1 µM, 7x7, partner max 10 µM)	-0.0394	0.0391	0.0021	0.015	0.0161	0.0352	0.0257	0.0335	-0.0338	0.0066	-0.012	-0.0358	-0.0351	-0.0438	-0.0695	-0.0462	0.0269	-0.0109	-0.0376	-0.0503
NC1(C(=O)N[C@@H](CCO)c2ccc(Cl)cc2)CCN(c2ncnc3[nH]ccc23)CC1 [Capivasertib] + Cn1cnc2c(F)c(Nc3ccc(Br)cc3Cl)c(C(=O)NOCCO)cc21 [Selumetinib] (first compound max 10 µM, 7x7, partner max 10 µM)	-0.0098	0.0036	0.0439	-0.0091	0.0399	0.0123	0.0675	0.0034	0.0094	0.147	-0.0027	0.0019	0.0153	-0.0383	0.01	-0.0299	0.0266	-0.0415	-0.0085	-0.0316
NC1(C(=O)N[C@@H](CCO)c2ccc(Cl)cc2)CCN(c2ncnc3[nH]ccc23)CC1 [Capivasertib] + CC(C)n1c(=O)n(C)c2cnc3cc(F)c(-c4ccc(OCCCN5CCCCC5)nc4)cc3c21 [AZD1390] (first compound max 10 µM, 7x7, partner max 0.3 µM)	-0.0703	-0.0315	-0.0006	-0.0908	-0.0226	-0.0706	-0.0117	-0.0487	-0.0612	0.0461	-0.0997	-0.111	-0.0513	-0.0506	-0.0223	-0.039	-0.0211	-0.0748	-0.068	-0.0703
CC1(C)CCC(CN2CCN(c3ccc(C(=O)NS(=O)(=O)c4ccc(NCC5CCOCC5)c([N+](=O)[O-])c4)c(Oc4cnc5[nH]ccc5c4)c3)CC2)=C(c2ccc(Cl)cc2)C1 [Venetoclax] + C1CN(CCC1(C(=O)N[C@@H](CCO)C2=CC=C(C=C2)Cl)N)C3=NC=NC4=C3C=CN4 [Capivasertib] (first compound max 1 µM, 7x7, partner max 3 µM)	-0.079	-0.035	-0.0146	0.0001	-0.0234	0.0217	-0.0823	-0.0486	-0.0586	0.0227	-0.0805	-0.0733	-0.0418	-0.071	-0.0833	-0.0252	-0.0144	-0.0233	-0.109	-0.0214
CC1(C)CCC(CN2CCN(c3ccc(C(=O)NS(=O)(=O)c4ccc(NCC5CCOCC5)c([N+](=O)[O-])c4)c(Oc4cnc5[nH]ccc5c4)c3)CC2)=C(c2ccc(Cl)cc2)C1 [Venetoclax] + COc1cc(Nc2ncc3c(n2)-c2ccc(Cl)cc2C(c2c(F)cccc2OC)=NC3)ccc1C(=O)O [Alisertib] (first compound max 1 µM, 7x7, partner max 10 µM)	-0.0913	0.08	0.028	0.079	0.0787	0.18	0.0857	0.0402	-0.0293	0.0661	-0.0026	-0.0266	-0.0251	-0.0137	-0.0675	0.0489	0.0444	0.0107	-0.0323	-0.087
COc1nnc2ccc(N3CCC(c4ccc(OCCN5CCN(C)C(=O)[C@H]5C)cc4)CC3)nn12 [AZD5153] + CCN(CCO)CCCOc1ccc2c(Nc3cc(CC(=O)Nc4cccc(F)c4)[nH]n3)ncnc2c1 [AZD2811] (first compound max 1 µM, 7x7, partner max 1 µM)	0.0278	-0.0105	0.0144	-0.115	0.0977	-0.0099	-0.0106	-0.0151	-0.0065	-0.0739	-0.0363	-0.0621	-0.0102	-0.108	-0.0589	-0.0194	-0.0108	-0.0243	-0.0694	0.0005
